Test results from ChEMBL document CHEMBL1201862, “PubChem BioAssay data set” (2004).
Active and inactive are the calls of the source.

Legend:
[1] = biological target: 1-phosphatidylinositol 4,5-bisphosphate phosphodiesterase gamma-1 (Homo sapiens, UniProt P19174); assay: Counterscreen for inhibitors of phospholipase C isozymes (PLC-B3): Fluorescence-based biochemical high throughput dose response assay to identify inhibitors of phospholipase C isozymes (PLC-gamma1).
[2] = biological target: 1-phosphatidylinositol 4,5-bisphosphate phosphodiesterase beta-3 (Homo sapiens, UniProt Q01970); assay: Fluorescence-based biochemical high throughput dose response assay to identify inhibitors of phospholipase C isozymes (PLC-B3).
Sequence of 1-phosphatidylinositol 4,5-bisphosphate phosphodiesterase beta-3 (Q01970 whole entry): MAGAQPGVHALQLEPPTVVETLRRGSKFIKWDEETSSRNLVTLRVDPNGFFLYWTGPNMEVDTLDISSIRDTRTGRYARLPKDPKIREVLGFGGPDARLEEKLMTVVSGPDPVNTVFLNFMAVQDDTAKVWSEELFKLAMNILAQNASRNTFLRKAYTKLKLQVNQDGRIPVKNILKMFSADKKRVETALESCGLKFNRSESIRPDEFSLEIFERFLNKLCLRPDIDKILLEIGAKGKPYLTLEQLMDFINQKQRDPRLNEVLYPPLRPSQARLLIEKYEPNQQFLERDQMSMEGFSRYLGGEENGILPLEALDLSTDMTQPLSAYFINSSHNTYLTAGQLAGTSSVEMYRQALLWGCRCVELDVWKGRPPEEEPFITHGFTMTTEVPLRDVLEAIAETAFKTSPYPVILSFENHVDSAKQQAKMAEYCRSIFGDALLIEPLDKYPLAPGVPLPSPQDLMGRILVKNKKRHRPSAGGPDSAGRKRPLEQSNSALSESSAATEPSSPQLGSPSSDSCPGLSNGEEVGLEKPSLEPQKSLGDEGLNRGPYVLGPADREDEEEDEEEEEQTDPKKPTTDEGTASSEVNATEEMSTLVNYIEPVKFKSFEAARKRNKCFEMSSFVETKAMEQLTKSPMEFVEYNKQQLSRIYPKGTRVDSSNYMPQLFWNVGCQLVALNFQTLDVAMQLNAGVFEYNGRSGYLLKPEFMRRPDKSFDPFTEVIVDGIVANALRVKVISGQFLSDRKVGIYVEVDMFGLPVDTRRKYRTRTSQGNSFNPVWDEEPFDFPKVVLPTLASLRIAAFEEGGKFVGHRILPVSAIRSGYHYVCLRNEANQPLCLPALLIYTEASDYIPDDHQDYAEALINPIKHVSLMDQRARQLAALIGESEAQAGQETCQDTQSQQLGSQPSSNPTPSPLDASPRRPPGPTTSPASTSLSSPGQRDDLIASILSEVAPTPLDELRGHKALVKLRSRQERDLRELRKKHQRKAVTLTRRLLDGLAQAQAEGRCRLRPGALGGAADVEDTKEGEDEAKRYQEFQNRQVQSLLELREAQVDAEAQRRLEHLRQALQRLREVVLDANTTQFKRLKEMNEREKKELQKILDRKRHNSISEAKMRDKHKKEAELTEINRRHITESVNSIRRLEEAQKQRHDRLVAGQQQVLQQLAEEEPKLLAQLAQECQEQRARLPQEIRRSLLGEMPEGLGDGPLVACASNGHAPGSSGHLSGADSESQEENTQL

fMet-Leu-Phe receptor = fMet-Leu-Phe receptor (Homo sapiens, UniProt P21462); assay: FPR ligands, dose response (AID 519); type: functional
Sequence of fMet-Leu-Phe receptor (P21462 whole entry): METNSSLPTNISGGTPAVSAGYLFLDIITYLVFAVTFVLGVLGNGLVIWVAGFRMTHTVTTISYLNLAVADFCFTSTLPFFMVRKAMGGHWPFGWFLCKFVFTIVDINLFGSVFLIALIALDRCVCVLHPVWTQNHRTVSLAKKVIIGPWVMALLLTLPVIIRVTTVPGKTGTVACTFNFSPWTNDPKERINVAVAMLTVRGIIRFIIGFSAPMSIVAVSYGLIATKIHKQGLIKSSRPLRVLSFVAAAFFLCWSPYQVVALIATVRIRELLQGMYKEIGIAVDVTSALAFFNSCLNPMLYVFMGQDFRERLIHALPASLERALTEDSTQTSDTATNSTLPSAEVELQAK

[3] = biological target: Histone-lysine N-methyltransferase NSD2 (Homo sapiens, UniProt O96028); type: biochemical
Sequence of Histone-lysine N-methyltransferase NSD2 (O96028 whole entry): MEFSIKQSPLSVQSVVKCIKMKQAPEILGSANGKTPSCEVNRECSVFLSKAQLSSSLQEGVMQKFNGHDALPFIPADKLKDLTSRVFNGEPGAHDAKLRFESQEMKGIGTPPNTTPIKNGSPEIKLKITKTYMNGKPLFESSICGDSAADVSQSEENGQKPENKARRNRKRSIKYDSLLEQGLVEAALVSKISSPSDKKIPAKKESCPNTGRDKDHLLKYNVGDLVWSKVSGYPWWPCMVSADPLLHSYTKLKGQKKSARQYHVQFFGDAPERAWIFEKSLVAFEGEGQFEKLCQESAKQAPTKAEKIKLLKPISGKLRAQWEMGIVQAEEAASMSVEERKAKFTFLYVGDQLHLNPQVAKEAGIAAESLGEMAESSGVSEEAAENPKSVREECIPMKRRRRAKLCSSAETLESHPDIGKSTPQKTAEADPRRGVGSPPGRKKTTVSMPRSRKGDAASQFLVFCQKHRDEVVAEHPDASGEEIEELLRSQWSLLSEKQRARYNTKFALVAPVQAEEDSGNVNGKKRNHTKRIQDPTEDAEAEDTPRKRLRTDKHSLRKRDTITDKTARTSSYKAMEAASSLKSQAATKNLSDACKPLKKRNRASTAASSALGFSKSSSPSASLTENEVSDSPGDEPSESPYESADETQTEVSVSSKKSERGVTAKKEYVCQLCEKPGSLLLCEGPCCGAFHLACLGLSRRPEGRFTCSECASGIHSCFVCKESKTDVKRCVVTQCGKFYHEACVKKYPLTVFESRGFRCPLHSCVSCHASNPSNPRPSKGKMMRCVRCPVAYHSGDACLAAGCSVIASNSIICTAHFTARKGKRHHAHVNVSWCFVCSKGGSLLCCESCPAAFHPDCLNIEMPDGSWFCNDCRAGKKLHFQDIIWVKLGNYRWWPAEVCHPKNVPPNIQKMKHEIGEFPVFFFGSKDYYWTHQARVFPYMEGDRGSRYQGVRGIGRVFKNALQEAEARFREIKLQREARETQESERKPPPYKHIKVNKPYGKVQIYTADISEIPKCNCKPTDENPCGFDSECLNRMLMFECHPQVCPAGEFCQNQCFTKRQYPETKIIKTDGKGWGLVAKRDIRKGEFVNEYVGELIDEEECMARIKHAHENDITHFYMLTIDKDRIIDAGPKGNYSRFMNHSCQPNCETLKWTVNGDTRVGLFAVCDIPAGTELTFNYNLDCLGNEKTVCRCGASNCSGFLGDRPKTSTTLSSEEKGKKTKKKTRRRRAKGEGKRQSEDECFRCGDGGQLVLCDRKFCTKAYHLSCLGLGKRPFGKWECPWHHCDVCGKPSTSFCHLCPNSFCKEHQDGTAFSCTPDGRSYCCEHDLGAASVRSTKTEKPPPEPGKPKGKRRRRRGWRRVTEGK

H9c2 = assay: cells; type: functional, cell-based; conditions: Rattus norvegicus, H9c2, Myocardium
[4] = biological target: T1, Heat shock factor protein 1 (Mus musculus, UniProt P38532); assay: HSF1 potentiators in luciferase reporter cells, confirmation, cell-based, NIH3T3, luminescence, dose retest (AID 435004); type: functional;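 also: stress induced by proteasome inhibitor MG132 added 30 min after compound; luciferase reporter driven by HSF1 response element in NIH3T3 cells; actives raise luminescence as potentiators of the MG132 stress response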
T1 sequence (P38532 whole entry): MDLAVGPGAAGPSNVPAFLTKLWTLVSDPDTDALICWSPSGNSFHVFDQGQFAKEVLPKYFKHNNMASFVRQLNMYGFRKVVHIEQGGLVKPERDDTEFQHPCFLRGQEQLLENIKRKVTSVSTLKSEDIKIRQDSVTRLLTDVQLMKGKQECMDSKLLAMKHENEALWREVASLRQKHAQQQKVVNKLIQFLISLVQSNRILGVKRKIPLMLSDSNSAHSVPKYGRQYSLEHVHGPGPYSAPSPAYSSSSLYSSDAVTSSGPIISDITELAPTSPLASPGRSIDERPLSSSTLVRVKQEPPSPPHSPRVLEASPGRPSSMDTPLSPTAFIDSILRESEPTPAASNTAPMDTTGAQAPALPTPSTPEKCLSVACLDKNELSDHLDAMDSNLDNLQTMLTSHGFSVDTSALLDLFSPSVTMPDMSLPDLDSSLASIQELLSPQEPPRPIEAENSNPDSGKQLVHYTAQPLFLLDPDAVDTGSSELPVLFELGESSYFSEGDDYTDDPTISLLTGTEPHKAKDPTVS

[5] = biological target: T2, Trace amine-associated receptor 1 (Homo sapiens, UniProt Q96RJ0); assay: Fluorescence-based cell-based high throughput dose response assay to identify agonists of the human trace amine associated receptor 1 (TAAR1).; type: functional
T2 sequence (Q96RJ0 whole entry): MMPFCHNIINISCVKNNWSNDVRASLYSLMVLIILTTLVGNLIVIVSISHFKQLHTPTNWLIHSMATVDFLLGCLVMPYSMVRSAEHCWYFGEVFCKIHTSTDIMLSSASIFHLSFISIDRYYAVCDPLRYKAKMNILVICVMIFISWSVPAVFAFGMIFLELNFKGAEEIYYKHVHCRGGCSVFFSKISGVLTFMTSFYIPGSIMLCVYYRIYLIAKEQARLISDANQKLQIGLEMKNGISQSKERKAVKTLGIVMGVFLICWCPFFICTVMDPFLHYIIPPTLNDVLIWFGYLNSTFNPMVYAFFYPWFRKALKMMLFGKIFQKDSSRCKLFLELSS

cells [6] = type: functional, cell-based
cells [7] = type: functional, cell-based; remark: listed apart in the source
[8] = biological target: T2, Trace amine-associated receptor 1; assay: Counterscreen for agonists of the human trace amine associated receptor 1 (hTAAR1): Fluorescence-based cell-based high throughput dose response assay to identify hTAAR1 agonist that also desensitize TAAR1 receptor response.; type: functional
[9] = HEK293T cytotoxicity, dose response, cytotoxicity control for miR-122 modulator project, cell-based, activator set, cherry-pick (AID 720690); type: functional;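 also: HEK293T human cells scored for general mammalian cytotoxicity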
[10] = miR-122 activators in hepatoma reporter cells, dose response, cell-based, Huh7 psiCHECK-miR122, Renilla luciferase, cherry-picked (AID 651956); type: functional;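 also: huh7 hepatoma cells stably carrying a psiCHECK-2 miR-122 sensor plasmid; renilla luciferase signal reporting endogenous miR-122 activity after 48 h compound exposure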
[11] = NIH:OVCAR-3 ovarian cancer cell cytotoxicity, dose response, PAX8 inhibitor project, plate reader, dry powder samples (AID 743044); type: functional, cell-based
[12] = non-specific cell cytotoxicity, dose response, cytotoxicity control for PAX8 inhibitor project, plate reader, dry powder samples (AID 743021); type: functional, cell-based
[13] = IGROV1 ovarian cancer cell cytotoxicity, dose response, PAX8 inhibitor project, plate reader, dry powder samples (AID 743043); type: functional, cell-based; conditions: IGROV-1
[14] = cytotoxicity in OVCAR8 ovarian cancer cells, dose response, PAX8 project, cell-based, plate reader, dry powder samples (AID 743197); type: functional; conditions: OVCAR-8
Paired box protein Pax-8 = Paired box protein Pax-8 (Homo sapiens, UniProt Q06710); assay: inhibitors of PAX8-driven TPO luciferase reporter, dose response, RMG-I cells, cherry-pick (AID 687027); type: functional, cell-based;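 also: luciferase reporter driven by Pax8 target thyroperoxidase promoter measured by SteadyGlo luminescence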
[15] = HEK293 cell cytotoxicity, dose response, cytotoxicity control, cherry-picks, set 5 (AID 1053117); type: functional, cell-based
[16] = HepG2 cell cytotoxicity, dose response, cytotoxicity control, cherry-picked samples (AID 1159577); type: functional, cell-based
[17] = HepG2 cell cytotoxicity, dose response, cytotoxicity control, cherry-picks, set 5 (AID 1053118); type: functional, cell-based
[18] = A549 cell cytotoxicity, dose response, cytotoxicity control, cherry-picks, 26 µM top dose (AID 1053119); type: functional, cell-based
[19] = P. falciparum Dd2 growth inhibitors, dose response, SYBR Green, cherry-picked samples (AID 1159567); type: functional, cell-based
[20] = biological target: Potassium channel subfamily K member 9 (Homo sapiens, UniProt Q9NPC2); assay: TASK3 (KCNK9) channel inhibitors, thallium flux, SAR follow-up, selectivity assay for TASK1 inhibitor project, cell-based, FluxOR thallium flux, concentration-response (AID 652211); type: functional;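 also: potency is for inhibitors of the channel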
Sequence of Potassium channel subfamily K member 9 (Q9NPC2 whole entry): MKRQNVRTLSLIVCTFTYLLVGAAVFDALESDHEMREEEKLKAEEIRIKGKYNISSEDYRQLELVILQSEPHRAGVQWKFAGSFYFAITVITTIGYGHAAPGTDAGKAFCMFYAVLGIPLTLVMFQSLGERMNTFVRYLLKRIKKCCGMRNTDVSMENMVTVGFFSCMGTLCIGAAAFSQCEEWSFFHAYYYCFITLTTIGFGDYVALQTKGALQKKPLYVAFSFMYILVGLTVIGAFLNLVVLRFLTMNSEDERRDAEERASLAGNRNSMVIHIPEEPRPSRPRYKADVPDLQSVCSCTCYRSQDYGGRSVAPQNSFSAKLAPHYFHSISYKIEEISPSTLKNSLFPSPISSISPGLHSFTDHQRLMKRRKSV

[21] = inhibitors of fibronectin matrix deposition, dose response, AH1F cells, Alexa488-FN fluorescence, cherry-picks (AID 1035475); type: functional, cell-based
[22] = biological target: T3, Sentrin-specific protease 8 (Homo sapiens, UniProt Q96LD8); type: functional
T3 sequence (Q96LD8 whole entry): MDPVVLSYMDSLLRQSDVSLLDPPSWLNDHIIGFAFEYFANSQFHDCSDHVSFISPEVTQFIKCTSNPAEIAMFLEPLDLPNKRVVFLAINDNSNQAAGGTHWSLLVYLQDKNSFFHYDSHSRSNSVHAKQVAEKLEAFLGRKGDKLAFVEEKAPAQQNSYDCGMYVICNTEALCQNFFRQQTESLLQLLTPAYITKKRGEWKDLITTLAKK

Protein RecA = biological target: T4, Protein RecA (Mycobacterium tuberculosis, UniProt P9WHJ3); assay: Fluorescence Cell-Free Homogeneous Dose Retest to Identify Inhibitors of RecA-Intein Splicing Activity. [Related pubchem assays (depositor defined):AID2097, AID2223, AID489010, AID492950]; type: functional
T4 sequence (P9WHJ3 whole entry): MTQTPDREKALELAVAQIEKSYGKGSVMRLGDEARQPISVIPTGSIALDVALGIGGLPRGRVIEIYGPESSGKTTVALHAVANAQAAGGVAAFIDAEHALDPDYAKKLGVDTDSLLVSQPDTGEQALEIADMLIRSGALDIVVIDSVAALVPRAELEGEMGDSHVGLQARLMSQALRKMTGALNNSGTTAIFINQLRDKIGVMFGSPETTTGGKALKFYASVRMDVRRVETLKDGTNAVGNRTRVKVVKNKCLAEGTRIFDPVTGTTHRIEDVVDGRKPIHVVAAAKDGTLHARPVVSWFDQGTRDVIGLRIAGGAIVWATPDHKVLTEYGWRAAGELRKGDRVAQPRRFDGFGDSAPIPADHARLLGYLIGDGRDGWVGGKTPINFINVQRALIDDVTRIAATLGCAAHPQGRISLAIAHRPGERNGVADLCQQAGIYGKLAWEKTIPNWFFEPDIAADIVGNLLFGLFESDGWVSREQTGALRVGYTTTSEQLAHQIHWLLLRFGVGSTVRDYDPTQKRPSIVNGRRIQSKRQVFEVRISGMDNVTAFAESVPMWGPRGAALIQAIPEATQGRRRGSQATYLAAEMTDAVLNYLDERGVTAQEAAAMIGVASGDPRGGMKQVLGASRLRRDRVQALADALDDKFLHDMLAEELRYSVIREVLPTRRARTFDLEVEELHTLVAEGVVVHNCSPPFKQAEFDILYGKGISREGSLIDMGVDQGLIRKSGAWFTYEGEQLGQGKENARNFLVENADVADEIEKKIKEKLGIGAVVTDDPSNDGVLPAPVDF

[23] = biological target: Tyrosyl-DNA phosphodiesterase 2 (Homo sapiens, UniProt O95551); assay: human TDP2 enzyme inhibitors, dose response, biochemical, epi absorbance, IC50 (AID 743297)
Sequence of Tyrosyl-DNA phosphodiesterase 2 (O95551 whole entry): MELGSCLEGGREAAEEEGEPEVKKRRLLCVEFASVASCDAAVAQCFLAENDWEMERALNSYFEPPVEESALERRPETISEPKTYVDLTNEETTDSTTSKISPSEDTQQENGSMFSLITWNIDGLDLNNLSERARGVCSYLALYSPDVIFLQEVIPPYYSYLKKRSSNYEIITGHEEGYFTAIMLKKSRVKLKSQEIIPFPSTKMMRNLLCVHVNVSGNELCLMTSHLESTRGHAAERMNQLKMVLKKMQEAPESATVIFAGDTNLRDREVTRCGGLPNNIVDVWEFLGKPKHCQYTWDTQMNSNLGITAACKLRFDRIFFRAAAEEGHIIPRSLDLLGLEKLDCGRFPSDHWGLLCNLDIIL

[24] = biological target: T3, Sentrin-specific protease 8; type: functional; remark: listed apart in the source
[25] = biological target: T1, Heat shock factor protein 1; assay: inhibition of MG132-induced HSE-luciferase signal, confirmation, cell-based, NIH3T3, luminescence, dose retest (AID 2382); type: functional;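 also: NIH3T3 fibroblasts with HSF1-driven luciferase reporter stressed by proteasome inhibitor MG132; luminescence from HSF1-driven luciferase expression after 8 hours of MG132 stress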
[26] = biological target: T5, Replicative DNA helicase DnaB (Mycobacterium tuberculosis, UniProt P9WMR3); assay: DnaB intein splicing inhibitors, dose response, biochemical, cell-free fluorescence (AID 449749); type: functional
T5 sequence (P9WMR3 whole entry): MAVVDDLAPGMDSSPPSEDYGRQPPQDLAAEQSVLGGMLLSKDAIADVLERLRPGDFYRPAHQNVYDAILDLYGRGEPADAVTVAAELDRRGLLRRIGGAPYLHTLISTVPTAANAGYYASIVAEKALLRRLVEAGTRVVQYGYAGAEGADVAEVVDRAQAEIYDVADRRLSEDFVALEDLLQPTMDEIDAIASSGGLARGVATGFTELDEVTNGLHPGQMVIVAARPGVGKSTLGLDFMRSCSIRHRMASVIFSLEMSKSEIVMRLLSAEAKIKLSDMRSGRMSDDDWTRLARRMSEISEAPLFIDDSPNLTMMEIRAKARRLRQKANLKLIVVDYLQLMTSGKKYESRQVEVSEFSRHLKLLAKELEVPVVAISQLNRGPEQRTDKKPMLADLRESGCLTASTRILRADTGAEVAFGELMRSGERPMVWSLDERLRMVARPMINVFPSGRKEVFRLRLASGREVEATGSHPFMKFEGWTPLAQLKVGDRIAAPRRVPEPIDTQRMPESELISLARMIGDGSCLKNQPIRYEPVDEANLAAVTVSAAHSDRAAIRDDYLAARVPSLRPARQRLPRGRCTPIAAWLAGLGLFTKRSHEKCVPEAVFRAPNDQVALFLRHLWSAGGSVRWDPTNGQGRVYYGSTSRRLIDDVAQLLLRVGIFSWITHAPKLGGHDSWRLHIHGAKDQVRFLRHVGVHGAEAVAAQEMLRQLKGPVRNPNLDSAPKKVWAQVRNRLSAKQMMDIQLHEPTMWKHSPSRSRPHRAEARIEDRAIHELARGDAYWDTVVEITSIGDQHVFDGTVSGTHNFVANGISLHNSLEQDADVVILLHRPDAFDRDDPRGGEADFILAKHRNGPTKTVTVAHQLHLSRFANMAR

Sequence of 1-phosphatidylinositol 4,5-bisphosphate phosphodiesterase gamma-1 (P19174 whole entry): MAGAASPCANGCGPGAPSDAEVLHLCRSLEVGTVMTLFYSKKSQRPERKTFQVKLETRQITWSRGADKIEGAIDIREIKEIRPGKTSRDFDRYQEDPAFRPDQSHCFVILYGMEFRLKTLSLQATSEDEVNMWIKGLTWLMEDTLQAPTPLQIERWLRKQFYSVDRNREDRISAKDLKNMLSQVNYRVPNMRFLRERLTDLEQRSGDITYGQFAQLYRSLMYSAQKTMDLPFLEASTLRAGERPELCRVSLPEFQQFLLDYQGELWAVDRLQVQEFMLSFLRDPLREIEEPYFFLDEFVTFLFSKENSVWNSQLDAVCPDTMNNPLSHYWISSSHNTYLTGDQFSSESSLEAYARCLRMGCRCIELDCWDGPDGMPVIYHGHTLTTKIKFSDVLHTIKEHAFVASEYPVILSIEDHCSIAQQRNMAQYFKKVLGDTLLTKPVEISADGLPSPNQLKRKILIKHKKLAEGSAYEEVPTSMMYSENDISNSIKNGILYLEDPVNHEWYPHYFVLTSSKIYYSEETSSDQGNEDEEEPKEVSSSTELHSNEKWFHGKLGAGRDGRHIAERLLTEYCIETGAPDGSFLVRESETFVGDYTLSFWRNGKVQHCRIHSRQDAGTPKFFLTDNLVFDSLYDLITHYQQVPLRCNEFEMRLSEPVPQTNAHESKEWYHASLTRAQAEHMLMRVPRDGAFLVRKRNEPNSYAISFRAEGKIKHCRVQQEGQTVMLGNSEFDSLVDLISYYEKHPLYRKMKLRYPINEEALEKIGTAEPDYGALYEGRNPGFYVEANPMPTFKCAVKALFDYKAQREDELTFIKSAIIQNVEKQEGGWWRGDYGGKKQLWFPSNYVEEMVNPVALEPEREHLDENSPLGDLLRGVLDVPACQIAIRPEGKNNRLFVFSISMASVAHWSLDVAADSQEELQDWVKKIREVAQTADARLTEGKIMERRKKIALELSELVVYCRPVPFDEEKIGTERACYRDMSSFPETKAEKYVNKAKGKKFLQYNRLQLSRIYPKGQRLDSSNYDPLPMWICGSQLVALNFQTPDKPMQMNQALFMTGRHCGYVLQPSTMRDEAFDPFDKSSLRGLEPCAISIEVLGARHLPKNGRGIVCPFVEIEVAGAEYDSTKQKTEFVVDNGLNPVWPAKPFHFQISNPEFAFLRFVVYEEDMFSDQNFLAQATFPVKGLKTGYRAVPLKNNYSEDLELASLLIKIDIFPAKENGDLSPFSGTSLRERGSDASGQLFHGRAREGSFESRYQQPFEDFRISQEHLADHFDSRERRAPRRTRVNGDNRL

## O=S(=O)(c1ccc(Cl)cc1)c1cnc2ccccc2n1
[1]
  IC50: > 123 µM (inactive)
[2]
  IC50: > 123 µM (inactive)

## C/C(=C1/SC(N2CCCC2)=NC1=O)c1ccc(Br)cc1
fMet-Leu-Phe receptor
  Ki: > 66.7 µM (inactive)

## O=C(CN1CCN(S(=O)(=O)c2ccc(Br)cc2)CC1)c1ccc(O)c(O)c1
[3]
  AC50: 8.3 µM (active)
H9c2
  IC50: > 79 µM (inactive)

## CCOC(=O)CSc1nnc(Cn2c(=O)sc3ccccc32)n1-c1ccccc1C
[1]
  IC50: > 122 µM (inactive)
[2]
  IC50: > 122 µM (inactive)

## c1ccc2c3c([nH]c2c1)CCNC3
[4]
  EC50: > 260 µM (inactive)
[5]
  EC50: 412 nM (active)
Cells [6]
  EC50: > 29.9 µM (inactive)
Cells [7]
  IC50: > 29.9 µM (inactive)
[8]
  IC50: 1.77 µM (active)

## CCOc1ccc(C2C(C(=O)c3ccco3)=C(O)C(=O)N2Cc2cccnc2)cc1 (stereo not given)
fMet-Leu-Phe receptor
  Ki: 15.3 µM (inactive)

## COc1ccc(NC(=O)N2CCCCN3[C@H](CO)[C@H](c4ccc(C#CCC(C)C)cc4)[C@H]3C2)cc1
[9]
  AC50: 16 µM (active)
[10]
  AC50: 7.68 µM (active)

## CN1C(=O)c2cc(NC(=O)c3ccc(C(F)(F)F)cc3)ccc2OC[C@@H]2O[C@H](CC(=O)NCc3ccc4c(c3)OCO4)CC[C@H]21
[9]
  AC50: 34.9 µM (active)
[10]
  AC50: 53.6 µM (active)

## COc1ccc(-c2ccc3c(c2)[C@H]2[C@H](CCN2S(=O)(=O)c2ccc(F)cc2)[C@H](CO)N3C)cc1
[11]
  AC50: 19.3 µM (active)
[12]
  AC50: 63.7 µM (active)
[13]
  AC50: 34.4 µM (active)
[14]
  AC50: 31.8 µM (active)
Paired box protein Pax-8
  AC50: 8.98 µM (active)

## CO[C@@H]1CN(C)C(=O)c2cc(NC(=O)Nc3ccc(Cl)c(Cl)c3)ccc2OC[C@@H](C)NC[C@@H]1C
[15]
  AC50: 45.9 µM (active)
[16]
  AC50: 18.2 µM (active)
[17]
  AC50: > 52 µM (inactive)
[18]
  AC50: > 52 µM (inactive)
[19]
  AC50: 5.7 µM (active)

## Cc1cccc(C(=O)Nc2cccc(NC(=O)c3cccc(C)c3)c2)c1
[20]
  IC50: 990 nM (active)

## O=S(=O)(c1cccc(F)c1)N1CC[C@@H]2[C@H](CO)Nc3ccc(-c4cccc(F)c4)cc3[C@@H]21
[15]
  AC50: 27.2 µM (active)
[17]
  AC50: 42 µM (active)
[18]
  AC50: 33.4 µM (active)
[21]
  AC50: > 70 µM (inactive)

## C[C@@H]1CN([C@@H](C)CO)C(=O)c2cc(NC(=O)C3CCCCC3)ccc2O[C@H]1CN(C)Cc1ccc(-c2ccccc2)cc1
[15]
  AC50: > 52 µM (inactive)
[21]
  AC50: 30.9 µM (active)

## Nn1cnnc1N/N=C/c1ccc(Cl)c([N+](=O)[O-])c1
[22]
  IC50: 23.2 µM (active)
Protein RecA
  EC50: 10.3 µM (active)
[23]
  IC50: 81.2 µM (inactive)
[24]
  IC50: 21.7 µM (active)
[25]
  EC50: 10.2 µM (active)
[26]
  AC50: 18.1 µM (active)
